Laboratory results from patent US8440835B2, “Environmentally sensitive fluorophores” (Massachusetts Institute of Technology, priority 2007, dated 2013).

Experiments:
Assay type in all cases: physicochemical
[1] = Fluorescence spectra of the KR peptide series in dioxane vs. TBS buffer; conditions: for fluorescence intensity ratio (Idioxane/ITBS), in words: at the wavelength of maximum emission intensity in dioxane
Experimental: This example illustrates investigations into the biological applications of the dimethylamino phthalimide series of environment sensitive fluorophores (FIGS. 3C-3E), as compared to both dansyl and NBD. A comparative study was performed on the fluorophores of FIG. 3 by synthetically preparing a series of lysine-arginine rich peptides (KR peptide series) such that each peptide in the series contained one of the five fluorophores appended to the side-chain of the residue at position 4 in the peptide sequence (FIG. 4), SEQ ID NOs: 5-9. The fluorescence spectra of the KR peptides were then measured at 5 micromolar in both TBS buffer (pH 7.4) and dioxane (containing 5 mM 18-crown-6). These conditions were selected to determine the magnitude of the fluorescence change for each fluorophore under an ideal set of conditions. […] An advantage of this property is a much improved signal-to-noise ratio for experimental measurements made in the context of real biological systems. […] While it is often possible to optimize the maximum fluorescence output by experimenting with the placement of the selected fluorophore on the protein of interest, the intrinsic fluorescence of the fluorophore in aqueous environments is often a limiting factor when optimizing the fluorescent response.

[2] = Hydrolysis of the imide ring followed by fluorescence in PBS buffer over 24 hours
Experimental: The 4DMAP and 6DMN fluorophores are likely susceptible to the gradual hydrolysis of the imide ring system in the pH range of 7 to 8. The origin of this reactivity can be attributed to the bond angle strain of the five-membered imide ring system that is released during the ring opening process. […] This is apparent in an experiment performed on both the KR4DMAP and KR4DMN peptides using a PerkinElmer HTS7000 plate reader. Fluorescence of the two peptides was measured at their respective emission wavelengths in PBS buffer over a 24 hour period at 28° C.
The fluorophore remained intact throughout the 24 hr duration. This difference between the stability of 4DMN and that of 4DMAP is most evident at pH 8 where the rate of hydrolysis for 4DMAP is greatest (FIG. 7).

[3] = Resistance of the 4DMN side chain to solid-phase peptide synthesis conditions; conditions: 0.12 M diisopropylethylamine; 20% piperidine; 95% TFA
Experimental: The peptide synthesis was carried out using standard Fmoc-based solid phase peptide synthesis (SPPS) protocols on a 0.05 to 0.1 mmol scale using a 0.21 mmol/g loading PAL-PEG-PS solid support. Amino acids were coupled in three-fold excess using a mixture of 0.2 M HBTU/0.2 M HOBt in DMF as activating agents. Each amino acid was activated for two minutes with the HBTU/HOBt mixture (1 eq.) and diisopropylethylamine (DIPEA), 0.195 M in DMF (1.5 eq.) before being added to the resin. Peptide coupling was monitored using the 2,4,6-trinitrobenzenesulphonic acid (TNBS) test. Amino acids were used as protected Fmoc-amino acids with the standard side chain protecting groups. High-performance liquid chromatography (HPLC) was performed using a Waters 600E HPLC fitted with a Waters 600 automated control module and a Waters 2487 dual wavelength absorbance detector recording at 228 and 280 nm. For analytical HPLC, a Beckman Ultrasphere C18, 5 micrometer, 4.6×150 mm reverse-phase column was used. For preparative separations, a YMC-pack, C18, 250×20 mm reversed phase column was used. The standard gradient for analytical and preparative HPLC used was 93:7 to 5:95 over 35 minutes (water:acetonitrile, 0.1% TFA).

[4] = Exposure to standard Fmoc deprotection protocol (20% 4-methylpiperidine in DMF) on solid support, analysis by MALDI-MS, HPLC, ESI-MS
Experimental: This example illustrates the incorporation of 4DMAP and 6DMN into peptides by coupling an anhydride precursor of either fluorophore to a free amine on a fully synthesized peptide in the last step prior to cleaving the peptide from the solid support. […] This is evident in the experiment shown in FIG. 9 where the KR peptides of 4DMN and 6DMN were both exposed to a standard Fmoc deprotection protocol while still on solid support. Roughly 20 mg of resin for each peptide was transferred to a small 2 mL spin tube and treated at room temperature with a solution of 20% 4-methylpiperidine in DMF (3×5 min). The peptides were then cleaved from the resin and analyzed by MALDI-MS, HPLC, and ESI-MS.
The masses of these two peaks determined by ESI-MS were identical and confirmed to be that of the 4-methylpiperidine adduct. It is believed that the occurrence of the two byproduct peaks, instead of one, is due to varying retention times for the two possible isomers formed depending on which of the imide carbonyls are attacked by the base. […] The HPLC and ESI-MS analysis also confirmed that no reaction occurred. The 4DMNA amino acid appears to be unreactive under these conditions. Furthermore, it is worth emphasizing that the 4DMN chromophore was exposed to this same treatment twice previously during the preparation of the KR4DMN peptide using the 4DMNA Fmoc building-block.

## CN(C)c1ccc2c(c1)C(=O)NC2=O [4DMAP, 4-dimethylamino phthalimide, reference compound]
[1]
  fluorescence intensity ratio (Idioxane/ITBS), in words: greater than three orders of magnitude
[2]; pH 8, PBS buffer, 28° C.
  rate of hydrolysis: significantly enhanced

## CN(C)c1ccc2c3c(cccc13)C(=O)NC2=O [4DMN, 4-N,N-dimethylamino-1,8-naphthalimide]
[1]
  fluorescence intensity ratio (Idioxane/ITBS), in words: greater than three orders of magnitude
[3]
  resistance to peptide synthesis conditions: resistant
[2]; pH range of 7 to 8
  hydrolysis of the imide ring system: no such reactivity

## CN(C)c1ccc2c3c(cccc13)C(=O)N(CC(N)C(=O)O)C2=O (stereo not drawn) [4DMNA]
[4]; 20% 4-methylpiperidine in DMF, 3×5 min, room temperature, on resin
  formation of 4-methylpiperidine adduct: unreactive

## CN(C)c1ccc2cc3c(cc2c1)C(=O)NC3=O [6DMN, 6-N,N-dimethylamino-2,3-naphthalimide]
[1]
  fluorescence intensity ratio (Idioxane/ITBS), in words: greater than three orders of magnitude

## CN(C)c1ccc2c3c(cccc13)C(=O)N(CC(NC(=O)OCC1c3ccccc3-c3ccccc31)C(=O)O)C2=O (stereo not drawn) [Fmoc-4DMNA, N-α-Fmoc-(4-N,N-dimethylamino-1,8-naphthalimido) alanine]
[4]; use in preparation of various peptides
  susceptibility to nucleophilic attack by bases like 4-methylpiperidine: no susceptibility

## dansyl
[1]; KR peptide series
  λexc: below 350 nm
